Laboratory results: PubChem BioAssay AID1963972 (Molecular Pharmacology Branch, DTP, NCI, 2024)

Test system: 945468-187-T-J2-PDC spheroids viability
Assay: Anticancer human tumor 945468-187-T-J2-PDC patient-derived rectal carcinoma cell line growth inhibition [PI3K]
Conditions: spheroids with HUVEC and MSC; for IC50: curve of first compound; for viability, T/C: stronger effect = lower value
Summary of the method: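 Tumor cells grown as multi-cell spheroids with HUVEC endothelial cells and MSC fibroblast-like stroma were treated with targeted agents combined with inavolisib, alpelisib, duvelisib or copanlisib. Doses fell in half-log steps from near clinical Cmax, else from 10 microM. Viability was measured.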
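Also: spheroids exposed to compounds for seven days before reading.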

IC50 (second compound 0.00316 µM): > 10 µM
IC50 (second compound 0.01 µM): > 10 µM
IC50 (second compound 0.0316 µM): > 10 µM
IC50 (second compound 0.1 µM): > 10 µM
IC50 (second compound 0.316 µM): > 10 µM
IC50 (second compound 1 µM): > 10 µM
Structure (SMILES): C#Cc1c(F)ccc2cc(O)cc(-c3ncc4c(N5CC6CCC(C5)N6)nc(OCC56CCCN5CC(F)C6)nc4c3F)c12 (configuration not stated) + CC(Nc1ccc2c(c1)OCCn1cc(N3C(=O)OCC3C(F)F)nc1-2)C(N)=O
viability, T/C (second compound 0.00316 µM, first compound 0.0316 µM): 103%
viability, T/C (second compound 0.00316 µM, first compound 0.1 µM): 86.9%
viability, T/C (second compound 0.00316 µM, first compound 0.316 µM): 87.3%
viability, T/C (second compound 0.00316 µM, first compound 1 µM): 96.7%
viability, T/C (second compound 0.00316 µM, first compound 3.16 µM): 94%
viability, T/C (second compound 0.00316 µM, first compound 10 µM): 96.5%
viability, T/C (second compound 0.01 µM, first compound 0.0316 µM): 75.3%
viability, T/C (second compound 0.01 µM, first compound 0.1 µM): 105%
viability, T/C (second compound 0.01 µM, first compound 0.316 µM): 81.5%
viability, T/C (second compound 0.01 µM, first compound 1 µM): 82.8%
viability, T/C (second compound 0.01 µM, first compound 3.16 µM): 103%
viability, T/C (second compound 0.01 µM, first compound 10 µM): 86.8%
viability, T/C (second compound 0.0316 µM, first compound 0.0316 µM): 94.5%
viability, T/C (second compound 0.0316 µM, first compound 0.1 µM): 85.7%
viability, T/C (second compound 0.0316 µM, first compound 0.316 µM): 79.7%
viability, T/C (second compound 0.0316 µM, first compound 1 µM): 88.1%
viability, T/C (second compound 0.0316 µM, first compound 3.16 µM): 107%
viability, T/C (second compound 0.0316 µM, first compound 10 µM): 103%
viability, T/C (second compound 0.1 µM, first compound 0.0316 µM): 82.6%
viability, T/C (second compound 0.1 µM, first compound 0.1 µM): 81.2%
viability, T/C (second compound 0.1 µM, first compound 0.316 µM): 88.7%
viability, T/C (second compound 0.1 µM, first compound 1 µM): 93.3%
viability, T/C (second compound 0.1 µM, first compound 3.16 µM): 108%
viability, T/C (second compound 0.1 µM, first compound 10 µM): 95.3%
viability, T/C (second compound 0.316 µM, first compound 0.0316 µM): 77%
viability, T/C (second compound 0.316 µM, first compound 0.1 µM): 70.7%
viability, T/C (second compound 0.316 µM, first compound 0.316 µM): 76.5%
viability, T/C (second compound 0.316 µM, first compound 1 µM): 107%
viability, T/C (second compound 0.316 µM, first compound 3.16 µM): 81.4%
viability, T/C (second compound 0.316 µM, first compound 10 µM): 74.4%
viability, T/C (second compound 1 µM, first compound 0.0316 µM): 72%
viability, T/C (second compound 1 µM, first compound 0.1 µM): 62.4%
viability, T/C (second compound 1 µM, first compound 0.316 µM): 67.1%
viability, T/C (second compound 1 µM, first compound 1 µM): 68.3%
viability, T/C (second compound 1 µM, first compound 3.16 µM): 75.3%
viability, T/C (second compound 1 µM, first compound 10 µM): 69.3%
